Data set [1] can be described thus: Metabolic stability in human liver microsomes. The data set is classed as in vitro ADME. Set-up: HLM: unit not given beside the values. To be noted: for remaining at 1 h: human liver microsomes, read-out: HLM % Remaining at 1 h; for HLM: Table 3, human liver microsome data, head HLM/MLM without unit. On the procedure:
(§1) Experimental Procedures S3: Metabolic stability in human and mouse liver microsomes
(§2) These profiling studies were carried out as described in Mullangi R. et. al. Preclinical assessment of
(§3) ulixertinib, a novel ERK1/2 inhibitor, ADMET & DMPK, 2017, 212-223;
In general terms: Liver microsomes are a subcellular fraction often used to study metabolism.

Data set [2] is described as follows: Metabolic stability in mouse liver microsomes. The format is in vitro ADME. The following applies: for remaining at 1 h: mouse liver microsomes, read-out: MLM % Remaining at 1 h; for MLM: Table 3, mouse liver microsome data, head HLM/MLM without unit. On the procedure:
as §1, §2, §3

The target of a further data set is T1, human NNMT (Homo sapiens, UniProt P40261).
T1 sequence (P40261 1-264): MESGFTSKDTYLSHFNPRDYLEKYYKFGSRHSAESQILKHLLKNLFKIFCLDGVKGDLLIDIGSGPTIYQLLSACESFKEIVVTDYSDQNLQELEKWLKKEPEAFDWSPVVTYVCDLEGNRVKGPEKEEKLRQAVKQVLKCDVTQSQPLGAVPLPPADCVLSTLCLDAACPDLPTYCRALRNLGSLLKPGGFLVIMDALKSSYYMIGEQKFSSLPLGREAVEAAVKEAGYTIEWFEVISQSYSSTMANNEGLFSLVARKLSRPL
Briefly: Fluorescence-based NNMT enzymatic assay (human enzyme). The following applies: for IC50: read-out: hNNMT IC50; for reduction in potency on hNNMT: relative to (1). The data set is classed as biochemical. On the procedure: (§4) Experimental Procedures S2: Fluorescence-based NNMT enzymatic assay
(§5) NNMT activity was measured by fluorescence based assay. The product MNA formed in the reaction reacts with acetophenone in the presence of KOH and formic acid and forms a fluorescent product 2, 7- naphthyridine. The fluorescence intensity measured with excitation at 375nm and emission at 430nm. Inhibitors were screened using human, mouse and monkey NNMT enzymes. Different concentrations of inhibitors were pre-incubated along with 5ng/well of human NNMT enzyme and 3.42ng/well of mouse NNMT enzyme for 30 minutes at room temperature. Reaction was initiated by addition of SAM and nicotinamide mixture (7µM, 20µM, 8µM SAM and 6µM, 20µM, 9µM nicotinamide for human, mouse and monkey NNMT assays respectively) and incubated for 60 minutes at 37°C. The final assay reaction mixture contained a buffer of 100mM Tris Hcl pH 7.5, 0.04% BSA, 2mM Dithiothreitol and 1% DMSO. The reaction was terminated by addition of Ethanol: Acetophenone mix (75% ethanol: 25% Acetophenone) and 5M potassium Hydroxide prepared with 50% Ethanol. The reaction was incubated for 15 minutes followed by addition of 100µl of 60% formic acid and further incubation for 60 minutes at room temperature. A fluorescent product 2, 7- naphthyridine was measured in a Tecan reader with excitation at 375nm and emission at 430nm. The IC50 values were determined by fitting the inhibition curves (percent inhibition versus inhibitor concentration) using a four parametric sigmoidal dose response in graph pad prism. […]

In another data set the target is T2, mouse NNMT (Mus musculus, UniProt O55239).
T2 sequence (O55239 1-264): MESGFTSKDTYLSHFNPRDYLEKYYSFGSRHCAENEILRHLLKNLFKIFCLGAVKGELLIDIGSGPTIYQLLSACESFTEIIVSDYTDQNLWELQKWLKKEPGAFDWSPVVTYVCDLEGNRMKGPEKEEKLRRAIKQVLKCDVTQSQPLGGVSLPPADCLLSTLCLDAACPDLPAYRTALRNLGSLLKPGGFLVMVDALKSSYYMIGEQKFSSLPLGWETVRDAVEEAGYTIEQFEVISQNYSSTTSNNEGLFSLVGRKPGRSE
Nature of the data set: Fluorescence-based NNMT enzymatic assay (mouse enzyme). The format is biochemical. The following applies: for IC50: read-out: mNNMT IC50. On the procedure: as §4, §5

The nature of data set [3]: Metabolic stability in rat liver microsomes. The format is in vitro ADME. The following applies: read-out: RLM % Remaining at 1 h.
For data set [4], the system named is mice with diet-induced obesity. To be noted: cited from earlier work.

Where two headings read alike, the source gives them in different places.

A word on the fraction remaining: it is the share of the starting amount still present when the sample was taken. Usually IC50 stands for the midpoint of a concentration-inhibition curve. On to `Cc1nn(CC(C)(O)C(=O)N2CCN(c3c(C)sc4cnccc34)CC2)cc1-c1cccc(F)c1` (stereo not shown) [Compound 14], for which the share remaining at 1 h in data set [1] and in data set [2] was less than 5% in each case. For the same compound, the half-inhibitory concentration (IC50) is 490 nM at human NNMT and 3480 nM at mouse NNMT.
With `Cc1nn(CC(C)(O)C(=O)N2CCN(c3ccc4cnccc4c3)CC2)cc1-c1cccc(F)c1` (stereo not shown) [Compound 8], the fraction remaining at 1 h in data set [3], in data set [1] and in data set [2] was less than 5% throughout. In addition, the “hNNMT potency, in words” value on human NNMT was “completely lost hNNMT activity”. Further, the concentration for half-maximal inhibition (IC50) on human NNMT was greater than 10000 nM.
Regarding `Cc1nn(CC(C)(O)C(=O)N2CCN(c3cccc4c(=O)[nH]ccc34)CC2)cc1-c1cccc(F)c1` (stereo not shown) [Compound 22], the amount remaining at 1 h in data set [3] was 31%; in data set [1] it was 16%; in data set [2], less than 5%. On human NNMT, the “hNNMT potency, in words” value is reported as “not active”. Moreover, at human NNMT, the IC50 was greater than 30000 nM.
`Cc1nn(CC(C)(O)C(=O)N2CCN(c3ccc4[nH]ncc4c3)CC2)cc1-c1cccc(F)c1` (stereo not shown) [Compound 19]: the IC50 at human NNMT is greater than 10000 nM.
Turning to `Cc1nn(CC(C)(O)C(=O)N2CC(c3cccc4[nH]c(=O)ccc34)C2)cc1-c1cccc(F)c1` (stereo not shown) [Compound 27], the “hNNMT potency, in words” value at human NNMT is on record as “substantial loss of potency”. Moreover, at human NNMT (Table 3), the IC50 was greater than 30000 nM.
On to `CC(O)(C/N=c1/sc2cccc3c2n1CCC3)C(=O)N1CCN(c2cccc3cnccc23)CC1` (stereo not shown) [Compound 33], for which the 50% inhibitory concentration (IC50) on human NNMT stood at 2500 nM; on mouse NNMT it was 3000 nM.
As to `COc1ccc(-c2cn(C[C@](C)(O)C(=O)N3CCN(c4cccc5cnccc45)CC3)nc2C)cc1` (stereo in doubt) [Compound 12], on human NNMT, the “hNNMT potency, in words” value was “nanomolar potency” and the concentration for half-maximal inhibition (IC50) amounted to 8 nM. On mouse NNMT, the “mNNMT potency, in words” value is given as “nanomolar potency” and the IC50 amounted to 0.8 nM.
For the compound `Cc1nn(CC(C)(O)C(=O)N2CCC(c3cccc4[nH]c(=O)ccc34)CC2)cc1-c1cccc(F)c1` (stereo not shown) [Compound 25], the HLM in data set [1] stood at 17. Further, in data set [2], the MLM was less than 5. The figures for the 50% inhibitory concentration (IC50) on human NNMT (Table 3) and on mouse NNMT (Table 3) were 750 nM and greater than 3000 nM, respectively. Further, the “reduction in mNNMT potency” value at mouse NNMT (compared to (21)) is reported as “two-fold reduction”.
For `Cc1nn(CC(C)(O)C(=O)N2CCC(O)(c3cccc4c[n+]([O-])ccc34)CC2)cc1-c1cccc(F)c1` (stereo not shown) [Compound 32], the HLM in data set [1] was 72. In addition, the “metabolic stability, in words” value in data set [1] (humans) and in data set [2] (mice) was “improved metabolic stability” each time. For the same compound, the MLM in data set [2] came to 32. Also, at human NNMT, the “hNNMT potency, in words” value was “completely lost NNMT inhibition”. Moreover, the half-maximal inhibitory concentration (IC50) at human NNMT (Table 3) is greater than 30000 nM.
On to `Cc1nn(CC(C)(O)C(=O)N2CCN(c3cccc4cnccc34)CC2)cc1-c1ccccc1` (stereo not shown) [Compound 1], for which the IC50 on human NNMT stood at 260 nM; on mouse NNMT, 840 nM.
As to `Cc1nn(CC(O)C(=O)N2CCN(c3cccc4cnccc34)CC2)cc1-c1cccc(F)c1.O=C(O)C(F)(F)F` (stereo not shown) [Compound 9], on human NNMT, the IC50 was 880 nM and the “reduction in potency on hNNMT” value is listed as “three-fold reduction”. At mouse NNMT, the IC50 came out at 2430 nM.
Regarding `CCn1c(=N)n2c3c(cccc31)CCC2` [Compound 3], the mode of inhibition entry on human NNMT (competition with substrates nicotinamide / SAM) is recorded as “competitive inhibitors either of nicotinamide alone”. The IC50 at human NNMT amounted to 200 nM; at mouse NNMT, 500 nM.
As for `Cc1nn(CC(C)(O)C(=O)N2CCCN(c3cccc4[nH]c(=O)ccc34)CC2)cc1-c1cccc(F)c1` (stereo not shown) [Compound 28], on human NNMT, the “hNNMT potency, in words” value is “substantial loss of potency”. The figures for the concentration for half-maximal inhibition (IC50) on human NNMT (Table 3) and on mouse NNMT (Table 3) were greater than 3000 nM and greater than 30000 nM, respectively.
On to `Cc1nn(CC(C)(O)C(=O)N2CCN(c3cccc4cnncc34)CC2)cc1-c1cccc(F)c1` (stereo not shown) [Compound 15], for which the share remaining at 1 h in data set [3], in data set [1] and in data set [2] was less than 5% each time. Also, the values for the IC50 on human NNMT and at mouse NNMT were 790 nM and 5100 nM, respectively.
As to `Cc1nn(CC(C)(O)C(=O)N2CCN(c3cccc4[nH]ncc34)CC2)cc1-c1cccc(F)c1` (stereo not shown) [Compound 20], the share remaining at 1 h is 18% in data set [1] and less than 5% in data set [2]. The half-maximal inhibitory concentration (IC50) on human NNMT was greater than 3000 nM.
In the case of `Cc1nn(CC(C)(O)C(=O)N2CCC(C3=CC=CC4NC(=O)C=CC34)C2)cc1-c1cccc(F)c1` (stereo not shown) [Compound 26], the HLM in data set [1] stood at 12. This compound also gave an MLM in data set [2] of less than 5. Moreover, the “hNNMT potency, in words” value on human NNMT was “substantial loss of potency”. Further, the IC50 on human NNMT (Table 3) is greater than 10000 nM.
In the case of `Cc1nn(CC(C)(O)C(=O)N2CCN(c3c(F)ccc4cnccc34)CC2)cc1-c1cccc(F)c1` (stereo not shown) [Compound 11], the amount remaining at 1 h in data set [1] and in data set [2] was less than 5% throughout. Besides, the “hNNMT potency, in words” value on human NNMT is given as “retains potency”. Besides, the half-inhibitory concentration (IC50) at human NNMT was determined as 200 nM; on mouse NNMT it was 1870 nM. The “mNNMT potency, in words” value at mouse NNMT is reported as “retains potency”.
Consider `Cc1nn(CC(C)(O)C(=O)N2CCN(c3cccc4cncnc34)CC2)cc1-c1cccc(F)c1` (stereo not shown) [Compound 16], for which the fraction remaining at 1 h in data set [3], in data set [1] and in data set [2] was less than 5% throughout. The IC50 turned out to be 1100 nM on human NNMT and 1630 nM at mouse NNMT.
For `Cc1nn(CC(C)(O)C(=O)N2CC(c3cccc4cnccc34)C2)cc1-c1cccc(F)c1` (stereo not shown) [Compound 29], the HLM in data set [1] is listed as <5/<5. Moreover, the MLM in data set [2] is given as <5/<5. For the same compound, the IC50 on human NNMT (Table 3) was greater than 30000 nM.
With `Cc1nn(CCC(=O)N2CCN(c3cccc4cnccc34)CC2)cc1-c1ccccc1` [Compound 6], the half-inhibitory concentration (IC50) at human NNMT is 1670 nM; at mouse NNMT it was 2200 nM. In addition, on human NNMT, the “reduction in potency on hNNMT” value is recorded as “six-fold reduction”. Also, the “reduction in potency on mouse NMMT (mNNMT)” value on mouse NNMT (relative to (1)) amounted to 2.5 fold.
Take `Cc1nn(CC(C)(O)C(=O)N2CCN(c3cccc4c3OCC(=O)N4)CC2)cc1-c1cccc(F)c1` (stereo not shown) [Compound 24]: the share remaining at 1 h in data set [1] and in data set [2] was less than 5% in each case. For the same compound, the IC50 on human NNMT is greater than 10000 nM.
Regarding `Cc1nn(CC(C)(O)C(=O)N2CCC(O)(c3cccc4[nH]c(=O)ccc34)CC2)cc1-c1cccc(F)c1` (stereo not shown) [Compound 30], in data set [1], the HLM was <5/<5. Also, the MLM in data set [2] is <5/<5. The “hNNMT potency, in words” value on human NNMT is “inactive”. Moreover, the IC50 on human NNMT (Table 3) is greater than 10000 nM.
As for `Cc1nn(CC(C)(O)C(=O)N2CCN(c3ccc4c(cnn4Cc4ccccc4)c3)CC2)cc1-c1cccc(F)c1` (stereo not shown) [Compound 18], the fraction remaining at 1 h in data set [3] was less than 5%; in data set [1] it was 35%; in data set [2] it was 30%. Besides, the concentration for half-maximal inhibition (IC50) on human NNMT was greater than 30000 nM.
For the compound 5-amino-1-methylquinoline, in data set [4], the body weight result was “reduced body weight”, the glucose tolerance result is recorded as “improved glucose tolerance” and the insulin sensitivity entry was “higher insulin sensitivity”.
`Cc1nn(CC(C)(O)C(=O)N2CCN(c3cccc4cnccc34)CC2)cc1-c1ccc(F)c(F)c1` (stereo not shown) [Compound 10]: the amount remaining at 1 h is 7% in data set [1] and less than 5% in data set [2]. The IC50 is 290 nM at human NNMT and greater than 3000 nM on mouse NNMT.
`Cc1nn(CC(C)(O)C(=O)N2CCN(c3cnc4cnccn34)CC2)cc1-c1cccc(F)c1` (stereo not shown) [Compound 17]: the share remaining at 1 h in data set [3] is less than 5%; in data set [1], 27%; in data set [2], 8%. In addition, the IC50 at human NNMT is greater than 3000 nM.

The values above are taken from article PMC7918612, “Novel Inhibitors of Nicotinamide-N-Methyltransferase for the Treatment of Metabolic Disorders” (Molecules, 2021).
